Results published in patent US20040102325A1, “Phenylpropynyloxypyridine herbicides” (priority 2000, published 2004).

Columns and labels:
Type in all cases: in vivo
[1] = system: Veronica; test: Post-emergence herbicidal action, Veronica; design: key: 1=total damage; 9=no action; conditions: post-emergence (2- to 3-leaf stage), 1000 g a.i/ha, 2 to 3 weeks, scale of nine ratings (1=total damage, 9=no action)
Description: (§1) Monocotyledonous and dicotyledonous test plants are sown in standard soil in pots, and at the 2- to 3-leaf stage are sprayed with an aqueous suspension of the test compounds (prepared from a wettable powder (Example F3, b) according to WO 97/34485) or with an emulsion of the test compounds (prepared from an emulsifiable concentrate (Example F1, c) according to WO 97/34485) at an optimum rate of application of 500 litres of water/ha). The test plants are then grown on in the greenhouse under optimum conditions. After a test duration of 2 to 3 weeks, the test is evaluated in accordance with a scale of nine ratings (1=total damage, 9=no action). Ratings of from 1 to 4 (especially from 1 to 3) indicate good to very good herbicidal action. Test plants: Panicum, Euphorbia, Sida, Amaranthus, Chenopodium, Stellaria, Veronica.

[2] = system: Setaria; test: Pre-emergence herbicidal action, Setaria; design: key: 1=total damage; 9=no action; conditions: 1000 g a.i./ha, 4 weeks, scale of nine ratings (1=total damage, 9=no action)
From the text: (§2) Monocotyledonous and dicotyledonous test plants are sown in standard soil in pots. Immediately after sowing, an aqueous suspension of the test compounds (prepared from a wettable powder (Example F3, b) according to WO 97/34485) or an emulsion of the test compounds (prepared from an emulsifiable concentrate (Example F1, c) according to WO 97/34485) is applied by spraying at an optimum rate of application (500 litres of water/ha). The test plants are then cultivated in a greenhouse under optimum conditions. After a test duration of 4 weeks, the test is evaluated in accordance with a scale of nine ratings (1=total damage, 9=no action). Ratings of from 1 to 4 (especially from 1 to 3) indicate good to very good herbicidal action. Test plants: Setaria, Panicum, Digitaria, Amaranthus, Stellaria, Veronica.

[3] = system: Stellaria; test: Pre-emergence herbicidal action, Stellaria; design: key: 1=total damage; 9=no action; conditions: 1000 g a.i./ha, 4 weeks, scale of nine ratings (1=total damage, 9=no action)
From the text: as §2

[4] = system: Amaranthus; test: Post-emergence herbicidal action, Amaranthus; design: key: 1=total damage; 9=no action; conditions: post-emergence (2- to 3-leaf stage), 1000 g a.i/ha, 2 to 3 weeks, scale of nine ratings (1=total damage, 9=no action)
Description: as §1

[5] = system: Stellaria; test: Post-emergence herbicidal action, Stellaria; design: key: 1=total damage; 9=no action; conditions: post-emergence (2- to 3-leaf stage), 1000 g a.i/ha, 2 to 3 weeks, scale of nine ratings (1=total damage, 9=no action)
Description: as §1

[6] = system: Amaranthus; test: Pre-emergence herbicidal action, Amaranthus; design: key: 1=total damage; 9=no action; conditions: 1000 g a.i./ha, 4 weeks, scale of nine ratings (1=total damage, 9=no action)
From the text: as §2

[7] = system: Euphorbia; test: Post-emergence herbicidal action, Euphorbia; design: key: 1=total damage; 9=no action; conditions: post-emergence (2- to 3-leaf stage), 1000 g a.i/ha, 2 to 3 weeks, scale of nine ratings (1=total damage, 9=no action)
Description: as §1

[8] = system: Sida; test: Post-emergence herbicidal action, Sida; conditions: post-emergence (2- to 3-leaf stage), 1000 g a.i/ha, 2 to 3 weeks, scale of nine ratings (1=total damage, 9=no action)
Description: as §1

[9] = system: Veronica; test: Pre-emergence herbicidal action, Veronica; design: key: 1=total damage; 9=no action; conditions: 1000 g a.i./ha, 4 weeks, scale of nine ratings (1=total damage, 9=no action)
From the text: as §2

[10] = system: Chenopodium; test: Post-emergence herbicidal action, Chenopodium; design: key: 1=total damage; 9=no action; conditions: post-emergence (2- to 3-leaf stage), 1000 g a.i/ha, 2 to 3 weeks, scale of nine ratings (1=total damage, 9=no action)
Description: as §1

[11] = system: Panicum; test: Post-emergence herbicidal action, Panicum; design: key: 1=total damage; 9=no action; conditions: post-emergence (2- to 3-leaf stage), 1000 g a.i/ha, 2 to 3 weeks, scale of nine ratings (1=total damage, 9=no action)
Description: as §1

[12] = system: Panicum; test: Pre-emergence herbicidal action, Panicum; design: key: 1=total damage; 9=no action; conditions: 1000 g a.i./ha, 4 weeks, scale of nine ratings (1=total damage, 9=no action)
From the text: as §2

[13] = system: Digitaria; test: Pre-emergence herbicidal action, Digitaria; design: key: 1=total damage; 9=no action; conditions: 1000 g a.i./ha, 4 weeks, scale of nine ratings (1=total damage, 9=no action)
From the text: as §2

SMILES	Veronica, herbicidal action rating [1]	Setaria, herbicidal action rating [2]	Stellaria, herbicidal action rating [3]	Amaranthus, herbicidal action rating [4]	Stellaria, herbicidal action rating [5]	Amaranthus, herbicidal action rating [6]	Euphorbia, herbicidal action rating [7]	Sida, herbicidal action rating [8]	Veronica, herbicidal action rating [9]	Chenopodium, herbicidal action rating [10]	Panicum, herbicidal action rating [11]	Panicum, herbicidal action rating [12]	Digitaria, herbicidal action rating [13]
Cc1ccc(OC(F)F)c(OCC#Cc2cccc(CC#N)c2)n1 [1.024]	3	1	1	1	1	1	2	2	1	1	–	–	–
COc1cc(F)cnc1OCC#Cc1cccc(CC#N)c1 [1.015]	2	7	1	1	1	1	1	3	4	1	1	2	2
N#CCc1cccc(C#CCOc2ccc(Cl)cn2)c1 [1.007]	1	5	1	1	6	1	2	4	7	1	2	1	1
COc1cc(Br)cnc1OCC#Cc1cccc(CC#N)c1 [1.017]	2	5	1	2	1	1	1	2	2	1	4	2	2
N#CCc1cccc(C#CCOc2ccc(Br)cn2)c1 [1.008]	2	7	4	1	4	1	2	3	1	1	7	1	1
CSc1cccnc1OCC#Cc1cccc(CC#N)c1 [1.047]	3	1	1	2	1	1	1	3	4	1	4	2	1
COc1cc(Cl)cnc1OCC#Cc1cccc(CC#N)c1 [1.016]	1	4	1	1	1	1	1	2	1	1	2	2	1
N#CCc1cccc(C#CCOc2ncc(F)cc2F)c1 [1.009]	2	–	3	1	2	2	1	2	–	1	2	–	1
N#CCc1cccc(C#CCOc2ncc(Cl)cc2OC(F)F)c1 [1.025]	4	1	1	2	4	1	2	3	1	7	–	1	2
COc1cc(C)cnc1OCC#Cc1cccc(CC#N)c1 [1.022]	3	–	2	3	4	1	2	3	1	3	6	2	–
N#CCc1cccc(C#CCOc2ncc(Cl)cc2F)c1 [1.011]	2	6	1	2	2	1	2	2	1	1	2	1	1
COc1cc(Cl)cnc1OCC#Cc1ccccc1 [1.094]	3	–	1	1	2	3	1	2	1	3	2	–	–
